≈ marks a conversion by molar mass, not a printed value.
How the values were obtained:
Plasmodium falciparum [1] = assay: Antimalarial activity against Plasmodium falciparum CH12; format: functional, organism-based
Plasmodium falciparum [2] = assay: Antimalarial activity against Plasmodium falciparum GA3; format: functional, organism-based
[3] = Oral bioavailability in rat; format: ADME, organism-based; conditions: in vivo
Cavia porcellus = assay: Hypoglycemic activity in sc dosed guinea pig assessed as glucose lowering effect; format: functional
[4] = Half life in po dosed human; format: ADME, organism-based; conditions: in vivo
[5] = Inhibition of Plasmodium knowlesi DHFR
Plasmodium berghei [6] = assay: Potency index, ratio of chloroquine ED50 to test compound ED50 for antimalarial activity against Plasmodium berghei infected in mouse; format: functional
Plasmodium berghei [7] = assay: Potency index, ratio of cycloguanil ED50 to test compound ED50 for antimalarial activity against Plasmodium berghei infected in mouse; format: functional
[8] = Toxicity in rat; conditions: in vivo
[9] = Toxicity in po dosed mouse; format: organism-based; conditions: in vivo
[10] = Toxicity in sc dosed mouse; format: organism-based; conditions: in vivo
MCF7 [11] = assay: Cytotoxicity against human MCF7 cells assessed as reduction in breast cancer stem cells at 1 mM after 48 hrs (reference value: 2.78%); format: functional; parameters: scale not given: the % may be the effect or the level left
MCF7 [12] = assay: Cytotoxicity against human MCF7 cells assessed as reduction in breast cancer stem cells at 5 mM after 48 hrs (reference value: 2.78%); format: functional; parameters: scale not given: the % may be the effect or the level left
SW-620 = assay: Synergistic antiproliferative activity against human SW620 cells assessed as reduction in cancer stem cells preincubated for 24 hrs followed by 5-FU addition and measured after 48 hrs (reference value: 21.30 +/- 1.40 %); format: functional; parameters: scale not given: the % may be the effect or the level left
Homo sapiens = species on record: Homo sapiens; assay: Antidiabetic activity in human assessed as reduction in hepatic glucose output; format: functional; parameters: scale not given: the % may be the effect or the level left
Streptococcus pyogenes = assay: Antibacterial activity against Streptococcus pyogenes; format: functional
Streptococcus = assay: Antibacterial activity against Streptococcus beta-haemolyticus; format: functional
Clostridium septicum = assay: Antibacterial activity against Clostridium septicum; format: functional

## CC(C)/N=C(N)/N=C(\N)NOCCCOc1cc(Cl)c(Cl)cc1Cl
Plasmodium falciparum [1]
  IC50: 326 ng/mL (≈ 0.822 µM)
Plasmodium falciparum [2]
  IC50: 0.532 µg/mL (≈ 1.34 µM)

## CC1(C)N=C(N)N=C(N)N1OCCCOc1cc(Cl)c(Cl)cc1Cl
[3]
  bioavailability: ≤ 1%
Plasmodium falciparum [1]
  IC50: 0.05 ng/mL (≈ 0.000127 µM)

## CCCCNC(=N)NC(=N)N [BUFORMIN]
Cavia porcellus
  MED: 20 mg

## CC(C)NC(=N)NC(=N)Nc1ccc(Cl)c(Cl)c1 [CHLORPROGUANIL]
[4]
  half-life: 2100 min

## CC1(C)N=C(N)N=C(N)N1OCc1ccc(Cl)c(Cl)c1 [CLOCIGUANIL]
[5]
  EC50: 1 pM
Plasmodium berghei [6]
  Ratio ED50: 10
Plasmodium berghei [7]
  Ratio ED50: 30

## CN(C)C(=N)NC(=N)N [METFORMIN]
[8]
  LD50: 1000 mg/kg
[9]
  LD50: 1450 mg/kg
[10]
  LD50: 2200 mg/kg
MCF7 [11]
  Activity: 2.2%
MCF7 [12]
  Activity: 1.29%
SW-620
  Activity: 15.13%
Homo sapiens
  Activity: >=75%
Cavia porcellus
  MED: 75 mg

## N=C(N)/N=C(\N)N1CCOCC1 [MOROXYDINE]
[9]
  LD50: > 6250 mg/kg
[10]
  LD50: 225 mg/kg

## N=C(N)NC(=N)NCCc1ccccc1 [PHENFORMIN]
Cavia porcellus
  MED: 7.5 mg

## N=C(NC(=N)N1CCN(C(=N)NC(=N)Nc2ccc(Cl)cc2)CC1)Nc1ccc(Cl)cc1 [PICLOXYDINE]
Streptococcus pyogenes
  MIC: 760 µg/mL (≈ 1600 µM)
Streptococcus
  MIC: 760 µg/mL (≈ 1600 µM)
Clostridium septicum
  MIC: 300 µg/mL (≈ 631 µM)
